Experimental data: US9744211B2, “Uses of BT lipopeptides as therapeutics for obesity and related diseases” (MYGALAXY LIMITED COMPANY, priority 2012, dated 2017)

Tested on: isolated chicken heterophils
Experiment: PMA-stimulated oxidative burst of heterophils in vitro (BT priming assay, with or without anti-TLR2 antibody blocking)
Type: cell-based
Conditions: Group 2: PMA stimulation only, no BT
Excerpt: However, the in vitro priming assay provides a useful tool for probing possible signaling pathway involved in BT-mediated innate immunomodulation. Since TLRs are conserved receptors playing key roles in innate immunity (Farnell et al., 2003) and TLR2 is the only TLR that has lipopeptide agonists, the same in vitro BT priming assay (Kogut et al., 2012) was employed to investigate whether TLR2 can function as a receptor for BT lipopeptides.
Goat polyclonal antibodies raised against human TLR2 were purchased from Santa Cruz Biotechnology Lab (Santa Cruz, Calif.). For TLR2-blocking, isolated chicken heterophils and the antibodies (2.0 μg/ml) were incubated, prior to the treatments of BT and/or PMA, at 39° C. for 30 minutes.

With `CCCCCCCCCCCCCC(=O)O[C@@H]1[C@@H](C)[C@@]2(O)[C@@H](C=C(CO)C[C@]3(O)C(=O)C(C)=C[C@@H]23)[C@@H]2C(C)(C)[C@]12OC(C)=O` [PMA] the “Oxidative burst (RFU + SE) in 10^3” value was 11.235 ± 0.125 RFU in 10^3.
